Reference: PubChem BioAssay (NCI)
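1) Cells in 96-well plates. 2) Compound, 48 h, 5 concentrations. 3) Linear interpolation between surrounding doses. 4) Unreached endpoint = highest concentration. GI50 = concentration required for 50% inhibition of growth. At the TGI there is no net growth.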

How the values were obtained:
Test in all cases: inhibition of tumour cell growth, NCI panel, 48 h
[1] = system: SF-268 CNS
[2] = system: SF-295 CNS
[3] = system: BT-549 breast
[4] = system: U251 CNS
[5] = system: OVCAR-8 ovarian
[6] = system: HL-60(TB) leukemia
[7] = system: IGROV1 ovarian
[8] = system: K-562 leukemia
[9] = system: HCT-116 colon
[10] = system: OVCAR-4 ovarian
[11] = system: UACC-62 melanoma
[12] = system: SK-MEL-28 melanoma
[13] = system: HT29 colon
[14] = system: OVCAR-3 ovarian
[15] = system: NCI-H226 lung
[16] = system: MCF7 breast
[17] = system: SN12C renal
[18] = system: HCC-2998 colon
[19] = system: A498 renal
[20] = system: CAKI-1 renal
[21] = system: MALME-3M melanoma
[22] = system: RPMI-8226 leukemia
[23] = system: COLO 205 colon
[24] = system: SR leukemia
[25] = system: MDA-MB-231 breast
[26] = system: NCI-H460 lung
[27] = system: NCI/ADR-RES ovarian
[28] = system: T-47D breast
[29] = system: UO-31 renal
[30] = system: SF-539 CNS
[31] = system: HOP-92 NSCLC
[32] = system: MOLT-4 leukemia
[33] = system: M14 melanoma
[34] = system: SW-620 colon
[35] = system: NCI-H522 lung
[36] = system: LOX IMVI melanoma
[37] = system: DU-145 prostate
[38] = system: ACHN renal
[39] = system: HCT-15 colon
[40] = system: 786-0 renal
[41] = system: SNB-19 CNS
[42] = system: EKVX NSCLC
[43] = system: RXF 393 renal
[44] = system: SK-OV-3 ovarian
[45] = system: OVCAR-5 ovarian
[46] = system: UACC-257 melanoma
[47] = system: HOP-62 NSCLC
[48] = system: CCRF-CEM leukemia
[49] = system: KM12 colon
[50] = system: SNB-75 CNS
[51] = system: PC-3 prostate
[52] = system: A549 NSCLC
[53] = system: NCI-H23 lung
[54] = system: SK-MEL-5 melanoma
[55] = system: TK-10 renal
[56] = system: SK-MEL-2 melanoma
[57] = system: HS 578T breast

CCCn1cnc2c(c1=N)C(c1ccc(Cl)cc1)c1sc3c(C)cccc3c1O2 (stereo not drawn)
GI50 [1]: 953 nM | TGI [1]: 11100 nM | GI50 [2]: 374 nM | TGI [2]: 10500 nM | GI50 [3]: 1490 nM | TGI [3]: 6890 nM | GI50 [4]: 432 nM | TGI [4]: 11300 nM | GI50 [5]: 522 nM | TGI [5]: 11400 nM | GI50 [6]: 346 nM | TGI [6]: 1690 nM | GI50 [7]: 464 nM | TGI [7]: 11800 nM | GI50 [8]: 283 nM | TGI [8]: 4200 nM | GI50 [9]: 410 nM | TGI [9]: 2150 nM | GI50 [10]: 1570 nM | TGI [10]: 17800 nM | GI50 [11]: 490 nM | TGI [11]: 15000 nM | GI50 [12]: 2340 nM | TGI [12]: 21900 nM | GI50 [13]: 402 nM | TGI [13]: 5110 nM | GI50 [14]: 283 nM | TGI [14]: 1050 nM | GI50 [15]: 431 nM | TGI [15]: 4080 nM | GI50 [16]: 339 nM | TGI [16]: 10800 nM | GI50 [17]: 879 nM | TGI [17]: 13300 nM | GI50 [18]: 732 nM | TGI [18]: 6100 nM | GI50 [19]: 304 nM | TGI [19]: 1170 nM | GI50 [20]: 192 nM | TGI [20]: 14900 nM | GI50 [21]: 10200 nM | TGI [21]: 25100 nM | GI50 [22]: 381 nM | TGI [22]: 3720 nM | GI50 [23]: 386 nM | TGI [23]: 1900 nM | GI50 [24]: 377 nM | TGI [24]: 5990 nM | GI50 [25]: 774 nM | TGI [25]: 13200 nM | GI50 [26]: 362 nM | TGI [26]: 1900 nM | GI50 [27]: 316 nM | TGI [27]: 2440 nM | GI50 [28]: 522 nM | TGI [28]: 24300 nM | GI50 [29]: 612 nM | TGI [29]: 18200 nM | GI50 [30]: 316 nM | TGI [30]: 1110 nM | GI50 [31]: 1980 nM | TGI [31]: 14500 nM | GI50 [32]: 498 nM | TGI [32]: 7700 nM | GI50 [33]: 314 nM | TGI [33]: 3860 nM | GI50 [34]: 402 nM | TGI [34]: 11700 nM | GI50 [35]: 387 nM | TGI [35]: 5700 nM | GI50 [36]: 701 nM | TGI [36]: 6730 nM | GI50 [37]: 444 nM | TGI [37]: 5440 nM | GI50 [38]: 791 nM | TGI [38]: 14900 nM | GI50 [39]: 409 nM | TGI [39]: 4930 nM | GI50 [40]: 558 nM | TGI [40]: 11200 nM | GI50 [41]: 527 nM | TGI [41]: 17600 nM | GI50 [42]: 572 nM | TGI [42]: 19400 nM | GI50 [43]: 217 nM | TGI [43]: 600 nM | GI50 [44]: 680 nM | TGI [44]: 19700 nM | GI50 [45]: 674 nM | TGI [45]: 13100 nM | GI50 [46]: 8900 nM | TGI [46]: 29000 nM | GI50 [47]: 477 nM | TGI [47]: 10700 nM | GI50 [48]: 380 nM | GI50 [49]: 443 nM | TGI [49]: 11200 nM | GI50 [50]: 237 nM | TGI [50]: 2660 nM | GI50 [51]: 454 nM | TGI [51]: 14300 nM | GI50 [52]: 530 nM | TGI [52]: 8740 nM | GI50 [53]: 587 nM | TGI [53]: 13100 nM | GI50 [54]: 430 nM | TGI [54]: 3460 nM | GI50 [55]: 5690 nM | TGI [55]: 24000 nM | GI50 [56]: 726 nM | TGI [56]: 16000 nM | GI50 [57]: 352 nM | TGI [57]: 5470 nM
